This is an account of results in US9617289B2, “RSV antiviral compounds” (JANSSEN R&D IRELAND, priority 2012, dated 2017).

SMILES strings stand for the structures.

One series relates to rgRSV224 virus. Briefly: Antiviral activity: inhibition of rgRSV224 (GFP-expressing RSV) replication in HeLa cells. In kind it is cell-based, respiratory syncytial virus. To be noted: human respiratory syncytial virus, HeLa, 72 h, read-out: RSV-wt_pEC50, rgRSV224 (MOI=0.02) in HeLa cells, GFP expression three days post-virus exposure. In a few lines: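 HeLa cells infected with GFP-expressing rgRSV224 at MOI 0.02 alongside 4-fold compound dilutions in duplicate (0.5% DMSO). Incubated 3 days at 37 °C; EC50 taken as 50% inhibition of GFP expression by laser microscopy. CC50 measured in parallel uninfected cells by ATP content after 3 days; SI = CC50/EC50.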

As usually defined, the melting point is the temperature of the solid-liquid transition. In turn, `CC(=O)NS(=O)(=O)N1CC2(C1)C(=O)N(Cc1cc3cc(Cl)ccc3n1CCCC#N)c1ccccc12` [Compound 117, N-[(1′-{[5-Chloro-1-(3-cyanopropyl)-1H-indol-2-yl]methyl}-2′-oxo-1′,2′-dihydro-1H-spiro[azetidine-3,3′-indol]-1-yl)sulfonyl]acetamide] showed a melting point of 182.85 °C. Further, the EC50 in the series with rgRSV224 virus was 10 nM.
On the same counts, the results for `CC(C)NC(=O)N[C@H]1C[C@]2(C1)C(=O)N(Cc1nc3cc(Cl)ccc3n1CCCC#N)c1ccccc12` [Compound 143, 1-((1s,3s)-1′-((5-chloro-1-(3-cyanopropyl)-1H-benzo[d]imidazol-2-yl)methyl)-2′-oxospiro[cyclobutane-1,3′-indolin]-3-yl)-3-isopropylurea] are 242.49 °C and 3.31 nM.
For `CC(C)NC(=O)N[C@H]1C[C@@]2(C1)C(=O)N(Cc1nc3cc(Cl)ccc3n1CCCC#N)c1ccccc12` [Compound 144, 1-((1r,3r)-1′-((5-chloro-1-(3-cyanopropyl)-1H-benzo[d]imidazol-2-yl)methyl)-2′-oxospiro[cyclobutane-1,3′-indolin]-3-yl)-3-isopropylurea], in that order: 219.9 °C and 0.229 nM.
For `CC(=O)N[C@H]1C[C@]2(C1)C(=O)N(Cc1nc3cc(Cl)ccc3n1CCCC#N)c1ccccc12` [Compound 145, N-((1s,3s)-1′-((5-chloro-1-(3-cyanopropyl)-1H-benzo[d]imidazol-2-yl)methyl)-2′-oxospiro[cyclobutane-1,3′-indolin]-3-yl)acetamide], in that order: 250.91 °C and 0.302 nM.
Regarding `CC(=O)N[C@H]1C[C@@]2(C1)C(=O)N(Cc1nc3cc(Cl)ccc3n1CCCC#N)c1ccccc12` [Compound 146, N-((1r,3r)-1′-((5-chloro-1-(3-cyanopropyl)-1H-benzo[d]imidazol-2-yl)methyl)-2′-oxospiro[cyclobutane-1,3′-indolin]-3-yl)acetamide], the melting point was determined as 194.77 °C. In addition, the EC50 in the series with rgRSV224 virus was 0.501 nM.
For `N#CCCCn1c(CN2C(=O)C3(CCN(C(=O)OCCO)CC3)c3ccncc32)cc2cc(Cl)ccc21` [Compound 147, 2-Hydroxyethyl 1′-{[5-chloro-1-(3-cyanopropyl)-1H-indol-2-yl]methyl}-2′-oxo-1′,2′-dihydro-1H-spiro[piperidine-4,3′-pyrrolo[2,3-c]pyridine]-1-carboxylate], the melting point worked out at 144.55 °C. The EC50 in the series on rgRSV224 virus is 0.055 nM.
On the same counts, the results for `CC(C)(O)C(=O)N1CCC2(CC1)C(=O)N(Cc1nc3cc(Cl)ccc3n1CCCCO)c1cnccc12` [Compound 164, 1′-{[5-Chloro-1-(4-hydroxybutyl)-1H-benzimidazol-2-yl]methyl}-1-(2-hydroxy-2-methylpropanoyl)spiro[piperidine-4,3′-pyrrolo[2,3-c]pyridin]-2′(1′H)-one] are 191.87 °C and 0.126 nM.
For `CC(C)(O)C(=O)N1CC2(C1)C(=O)N(Cc1cc3cc(Cl)ccc3n1CCCCO)c1ccccc12` [Compound 166, 1′-{[5-Chloro-1-(4-hydroxybutyl)-1H-indol-2-yl]methyl}-1-(2-hydroxy-2-methylpropanoyl)spiro[azetidine-3,3′-indol]-2′(1′H)-one], in that order: 157.11 °C and 0.537 nM.
For `CC(C)(O)C(=O)N1CCC2(CC1)C(=O)N(Cc1nc3cc(Cl)ccc3n1CCCCF)c1cnccc12` [Compound 169, 1′-{[5-Chloro-1-(4-fluorobutyl)-1H-benzimidazol-2-yl]methyl}-1-(2-hydroxy-2-methylpropanoyl)spiro[piperidine-4,3′-pyrrolo[2,3-c]pyridin]-2′(1′H)-one], in that order: 222.72 °C and 0.0275 nM.
The molecule `CC(=O)NS(=O)(=O)N1CCC2(CC1)C(=O)N(Cc1cc3cc(Cl)ccc3n1CCCC#N)c1cnccc12` [Compound 172, N-[(1′-{[5-Chloro-1-(3-cyanopropyl)-1H-indol-2-yl]methyl}-2′-oxo-1′,2′-dihydro-1H-spiro[piperidine-4,3′-pyrrolo[2,3-c]pyridin]-1-yl)sulfonyl]acetamide] returned a melting point of 230.52 °C. Also, the EC50 with rgRSV224 virus was 0.0661 nM.
On the same counts, the results for `N#CCCCn1c(CN2c3ccccc3[C@]3(C[C@@H](O)C3)C2=O)nc2cc(Cl)ccc21` [Compound 176, 4-(5-chloro-2-(((1r,3r)-3-hydroxy-2′-oxospiro[cyclobutane-1,3′-indolin]-1′-yl)methyl)-1H-benzo[d]imidazol-1-yl)butanenitrile] are 217.25 °C and 0.363 nM.
On the same counts, the results for `COC(=O)N1CCC2(CC1)C(=O)N(Cc1nc3cc(Cl)ccc3n1CCCCF)c1cnccc12` [Compound 178, Methyl 1′-{[5-chloro-1-(4-fluorobutyl)-1H-benzimidazol-2-yl]methyl}-2′-oxo-1′,2′-dihydro-1H-spiro[piperidine-4,3′-pyrrolo[2,3-c]pyridine]-1-carboxylate] are 182.68 °C and 0.0288 nM.
For `CC(C)OC(=O)N1CCC2(CC1)C(=O)N(Cc1nc3cc(Cl)ccc3n1CCCCF)c1cnccc12` [Compound 179, 1-Methylethyl 1′-{[5-chloro-1-(4-fluorobutyl)-1H-benzimidazol-2-yl]methyl}-2′-oxo-1′,2′-dihydro-1H-spiro[piperidine-4,3′-pyrrool[2,3-c]pyridine]-1-carboxylate], in that order: 198.92 °C and 0.0437 nM.
Molecule `N#CCCCn1c(CN2C(=O)C3(CN(S(=O)(=O)C4CC4)C3)c3ccccc32)nc2cc(Cl)ccc21` [Compound 180, 4-(5-Chloro-2-{[1-(cyclopropylsulfonyl)-2′-oxospiro[azetidine-3,3′-indol]-1′(2′H)-yl]methyl}-1H-benzimidazol-1-yl)butanenitrile] yielded a melting point of 190.42 °C. In addition, the EC50 in the series with rgRSV224 virus is 0.117 nM.
For `N#CCCCn1c(CN2C(=O)C3(CCN(C(=O)C(O)(C(F)(F)F)C(F)(F)F)CC3)c3ccncc32)nc2cc(Cl)ccc21` [Compound 181, 4-[5-Chloro-2-({2′-oxo-1-[3,3,3-trifluoro-2-hydroxy-2-(trifluoromethyl)propanoyl]spiro[piperidine-4,3′-pyrrolo[2,3-c]pyridin]-1′(2′H)-yl}methyl)-1H-benzimidazol-1-yl]butanenitrile], in that order: 240.41 °C and 0.251 nM.
For `CC(C)(O)C(=O)N1CC2(C1)C(=O)N(Cc1nc3cc(Cl)ccc3n1CCCCF)c1ccccc12` [Compound 183, 1′-{[5-Chloro-1-(4-fluorobutyl)-1H-benzimidazol-2-yl]methyl}-1-(2-hydroxy-2-methylpropanoyl)spiro[azetidine-3,3′-indol]-2′(1′H)-one], in that order: 219.71 °C and 0.0759 nM.
